Data as given in ChEMBL document CHEMBL4396928, “Discovery of Selective, Orally Bioavailable Pyrazolopyridine Inhibitors of Protein Kinase Cθ (PKCθ) That Ameliorate Symptoms of Experimental Autoimmune Encephalomyelitis” (ACS Med Chem Lett, 2019).

Experiments:
[1] = target: Protein kinase C theta type (Homo sapiens, UniProt Q04759); test: Inhibition of human recombinant full length His tagged PKC theta expressed in baculovirus using ERMRPRKRQGSVRRRV peptide as substrate incubated for 60 mins in presence of [33P] gammaATP by microbeta liquid scintillation counter
Protein kinase C theta type, sequence (Q04759 whole entry): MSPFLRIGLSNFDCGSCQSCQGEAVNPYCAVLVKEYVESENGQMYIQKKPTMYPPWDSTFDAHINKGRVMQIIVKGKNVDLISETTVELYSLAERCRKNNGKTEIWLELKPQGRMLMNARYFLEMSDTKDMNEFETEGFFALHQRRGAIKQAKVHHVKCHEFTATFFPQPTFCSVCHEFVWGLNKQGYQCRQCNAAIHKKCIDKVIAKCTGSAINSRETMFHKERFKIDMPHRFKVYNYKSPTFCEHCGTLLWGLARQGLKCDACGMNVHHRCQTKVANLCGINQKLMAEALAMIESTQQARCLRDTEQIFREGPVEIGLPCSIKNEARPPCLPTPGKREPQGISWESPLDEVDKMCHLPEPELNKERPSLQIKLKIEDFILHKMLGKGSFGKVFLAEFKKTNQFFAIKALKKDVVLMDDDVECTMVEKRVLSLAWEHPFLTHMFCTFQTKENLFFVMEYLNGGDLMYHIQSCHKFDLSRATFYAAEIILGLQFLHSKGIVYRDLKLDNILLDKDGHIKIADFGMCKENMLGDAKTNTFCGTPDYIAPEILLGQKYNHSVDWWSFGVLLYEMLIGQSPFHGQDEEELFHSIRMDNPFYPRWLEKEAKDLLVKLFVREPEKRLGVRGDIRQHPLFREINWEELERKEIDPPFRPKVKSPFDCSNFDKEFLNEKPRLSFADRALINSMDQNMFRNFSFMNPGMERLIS

PBMC = test: Inhibition of IL-2 secretion from human PBMC cells stimulated with anti-CD3/CD28 measured after 24 hrs by bead-based FLISA; format: functional, cell-based
Homo sapiens [2] = species on record: Homo sapiens; test: Selectivity ratio Ki for recombinant full length PKC alpha (unknown origin) to Ki for human recombinant full length His-tagged PKC theta
Homo sapiens [3] = species on record: Homo sapiens; test: Selectivity ratio Ki for recombinant full length PKC delta (unknown origin) to Ki for human recombinant full length His-tagged PKC theta
Cytochrome P450 2C9 = Cytochrome P450 2C9 (Homo sapiens, UniProt P11712); test: Inhibition of CYP2C9 (unknown origin) at 4 uM; format: ADME
Cytochrome P450 3A4 = Cytochrome P450 3A4 (Homo sapiens, UniProt P08684); test: Inhibition of CYP3A4 (unknown origin) at 16 uM; format: ADME
[4] = Stability of compound in human liver microsomes assessed as compound remaining at 30 mins; format: ADME, Microsome; settings: read-out: Stability
[5] = Dissociation constant, pKa of compound; format: physicochemical
[6] = target: Protein kinase C alpha type (Homo sapiens, UniProt P17252); test: Inhibition of recombinant full length PKC alpha (unknown origin) using RRRRRKGSFKRKA peptide as substrate measured after 15 mins in presence of ATP by spectrophotometric analysis
[7] = target: Voltage-gated inwardly rectifying potassium channel KCNH2 (Homo sapiens, UniProt Q12809); test: Inhibition of human ERG
Voltage-gated inwardly rectifying potassium channel KCNH2, sequence (Q12809 whole entry): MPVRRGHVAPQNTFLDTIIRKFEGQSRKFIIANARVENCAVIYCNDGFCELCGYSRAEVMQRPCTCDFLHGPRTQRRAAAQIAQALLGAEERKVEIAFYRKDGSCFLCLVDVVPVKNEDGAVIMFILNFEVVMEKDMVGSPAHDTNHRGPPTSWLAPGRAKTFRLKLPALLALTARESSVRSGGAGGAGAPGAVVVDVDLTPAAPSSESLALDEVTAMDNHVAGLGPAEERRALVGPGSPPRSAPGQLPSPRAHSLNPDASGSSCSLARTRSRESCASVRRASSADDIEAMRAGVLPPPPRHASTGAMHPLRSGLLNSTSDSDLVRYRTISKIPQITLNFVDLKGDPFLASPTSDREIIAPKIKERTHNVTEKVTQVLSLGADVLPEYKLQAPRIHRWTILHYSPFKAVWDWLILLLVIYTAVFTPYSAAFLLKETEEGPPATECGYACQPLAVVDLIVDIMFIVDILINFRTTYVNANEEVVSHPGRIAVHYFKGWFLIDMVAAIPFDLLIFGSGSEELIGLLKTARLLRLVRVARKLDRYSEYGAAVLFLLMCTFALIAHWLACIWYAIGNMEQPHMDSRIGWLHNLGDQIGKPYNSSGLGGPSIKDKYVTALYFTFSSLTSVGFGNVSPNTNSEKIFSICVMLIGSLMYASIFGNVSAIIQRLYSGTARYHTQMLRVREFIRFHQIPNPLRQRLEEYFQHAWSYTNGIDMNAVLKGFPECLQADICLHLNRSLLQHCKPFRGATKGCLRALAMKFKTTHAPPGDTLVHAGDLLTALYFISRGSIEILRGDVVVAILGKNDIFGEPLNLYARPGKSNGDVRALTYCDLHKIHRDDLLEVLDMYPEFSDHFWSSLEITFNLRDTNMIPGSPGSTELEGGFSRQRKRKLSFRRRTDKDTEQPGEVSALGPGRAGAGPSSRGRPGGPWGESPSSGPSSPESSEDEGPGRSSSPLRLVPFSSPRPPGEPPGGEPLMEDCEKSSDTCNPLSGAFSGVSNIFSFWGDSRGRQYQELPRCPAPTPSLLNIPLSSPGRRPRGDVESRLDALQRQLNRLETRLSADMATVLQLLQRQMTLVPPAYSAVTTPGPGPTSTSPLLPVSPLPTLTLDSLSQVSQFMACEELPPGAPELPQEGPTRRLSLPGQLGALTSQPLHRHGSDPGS

[8] = target: Protein kinase C delta type (Homo sapiens, UniProt Q05655); test: Inhibition of recombinant full length PKC delta (unknown origin) using ERMRPRKR- QGSVRRRV peptide as substrate measured after 15 mins in presence of ATP by spectrophotometric analysis
Protein kinase C delta type, sequence (Q05655 whole entry): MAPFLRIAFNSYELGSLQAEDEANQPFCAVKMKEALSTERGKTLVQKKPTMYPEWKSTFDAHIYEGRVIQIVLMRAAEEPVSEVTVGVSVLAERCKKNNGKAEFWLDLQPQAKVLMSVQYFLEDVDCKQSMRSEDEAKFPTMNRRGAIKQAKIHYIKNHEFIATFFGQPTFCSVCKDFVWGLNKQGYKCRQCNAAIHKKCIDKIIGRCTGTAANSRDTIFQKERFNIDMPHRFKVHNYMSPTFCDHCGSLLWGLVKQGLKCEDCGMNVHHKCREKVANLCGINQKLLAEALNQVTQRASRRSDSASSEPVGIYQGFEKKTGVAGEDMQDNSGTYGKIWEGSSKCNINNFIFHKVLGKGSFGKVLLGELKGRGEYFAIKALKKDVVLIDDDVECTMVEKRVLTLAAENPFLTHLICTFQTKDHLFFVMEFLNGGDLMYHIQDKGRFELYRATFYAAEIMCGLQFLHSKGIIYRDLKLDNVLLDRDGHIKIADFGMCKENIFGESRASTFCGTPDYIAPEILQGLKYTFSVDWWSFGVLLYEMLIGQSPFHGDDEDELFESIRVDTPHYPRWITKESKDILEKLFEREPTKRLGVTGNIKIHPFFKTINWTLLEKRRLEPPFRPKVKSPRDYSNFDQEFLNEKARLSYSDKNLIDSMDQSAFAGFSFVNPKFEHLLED

Cytochrome P450 2D6 = Cytochrome P450 2D6 (Homo sapiens, UniProt P10635); test: Inhibition of CYP2D6 (unknown origin) at 8 uM; format: ADME
Cytochrome P450 2D6, sequence (P10635 whole entry): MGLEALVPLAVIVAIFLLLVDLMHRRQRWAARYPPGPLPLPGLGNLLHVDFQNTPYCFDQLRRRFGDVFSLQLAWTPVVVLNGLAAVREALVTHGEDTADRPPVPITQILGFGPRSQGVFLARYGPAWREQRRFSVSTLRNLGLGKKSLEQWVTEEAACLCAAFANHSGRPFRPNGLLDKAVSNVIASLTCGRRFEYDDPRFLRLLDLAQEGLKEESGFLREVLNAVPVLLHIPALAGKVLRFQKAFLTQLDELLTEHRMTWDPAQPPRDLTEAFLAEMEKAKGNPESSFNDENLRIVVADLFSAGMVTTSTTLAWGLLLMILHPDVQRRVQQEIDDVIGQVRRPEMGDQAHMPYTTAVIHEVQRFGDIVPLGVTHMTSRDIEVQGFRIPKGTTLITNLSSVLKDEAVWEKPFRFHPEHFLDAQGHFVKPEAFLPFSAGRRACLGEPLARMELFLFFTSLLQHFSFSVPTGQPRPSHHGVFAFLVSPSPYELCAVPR

[9] = Stability of compound in rat liver microsomes assessed as compound remaining at 30 mins; format: ADME, Microsome; settings: read-out: Stability
[10] = Lipophilicity, logD of compound; format: physicochemical; settings: octanol/water
HFL1 = test: Cytotoxicity against human HFL1 cells assessed as growth inhibition measured after 48 hrs by 3H-thymidine incorporation assay; format: cell-based
[11] = Clearance in iv dosed rat; format: ADME, organism-based; settings: in vivo
[12] = Half-life in iv dosed rat; format: ADME, organism-based; settings: in vivo
[13] = Volume of distribution at steady state in iv dosed rat; format: ADME, organism-based; settings: in vivo, read-out: Vdss
[14] = target: Rho-associated protein kinase (Homo sapiens, UniProt O75116+Q13464); test: Inhibition of ROCK (unknown origin) using Myelin Basic Protein as substrate incubated for 60 mins in presence of [33P] gammaATP by microbeta liquid scintillation counter; format: protein assay
[15] = Permeability across apical to basolateral side in human Caco2 cells measured at 120 mins by LC-MS/MS analysis; format: ADME, cell-based; settings: Caco-2, read-out: permeability
[16] = target: Tyrosine-protein kinase JAK2 (Homo sapiens, UniProt O60674); test: Inhibition of JAK2 (unknown origin) using polyE4Y peptide as substrate incubated for 60 mins in presence of [33P] gammaATP by microbeta liquid scintillation counter
Tyrosine-protein kinase JAK2, sequence (O60674 whole entry): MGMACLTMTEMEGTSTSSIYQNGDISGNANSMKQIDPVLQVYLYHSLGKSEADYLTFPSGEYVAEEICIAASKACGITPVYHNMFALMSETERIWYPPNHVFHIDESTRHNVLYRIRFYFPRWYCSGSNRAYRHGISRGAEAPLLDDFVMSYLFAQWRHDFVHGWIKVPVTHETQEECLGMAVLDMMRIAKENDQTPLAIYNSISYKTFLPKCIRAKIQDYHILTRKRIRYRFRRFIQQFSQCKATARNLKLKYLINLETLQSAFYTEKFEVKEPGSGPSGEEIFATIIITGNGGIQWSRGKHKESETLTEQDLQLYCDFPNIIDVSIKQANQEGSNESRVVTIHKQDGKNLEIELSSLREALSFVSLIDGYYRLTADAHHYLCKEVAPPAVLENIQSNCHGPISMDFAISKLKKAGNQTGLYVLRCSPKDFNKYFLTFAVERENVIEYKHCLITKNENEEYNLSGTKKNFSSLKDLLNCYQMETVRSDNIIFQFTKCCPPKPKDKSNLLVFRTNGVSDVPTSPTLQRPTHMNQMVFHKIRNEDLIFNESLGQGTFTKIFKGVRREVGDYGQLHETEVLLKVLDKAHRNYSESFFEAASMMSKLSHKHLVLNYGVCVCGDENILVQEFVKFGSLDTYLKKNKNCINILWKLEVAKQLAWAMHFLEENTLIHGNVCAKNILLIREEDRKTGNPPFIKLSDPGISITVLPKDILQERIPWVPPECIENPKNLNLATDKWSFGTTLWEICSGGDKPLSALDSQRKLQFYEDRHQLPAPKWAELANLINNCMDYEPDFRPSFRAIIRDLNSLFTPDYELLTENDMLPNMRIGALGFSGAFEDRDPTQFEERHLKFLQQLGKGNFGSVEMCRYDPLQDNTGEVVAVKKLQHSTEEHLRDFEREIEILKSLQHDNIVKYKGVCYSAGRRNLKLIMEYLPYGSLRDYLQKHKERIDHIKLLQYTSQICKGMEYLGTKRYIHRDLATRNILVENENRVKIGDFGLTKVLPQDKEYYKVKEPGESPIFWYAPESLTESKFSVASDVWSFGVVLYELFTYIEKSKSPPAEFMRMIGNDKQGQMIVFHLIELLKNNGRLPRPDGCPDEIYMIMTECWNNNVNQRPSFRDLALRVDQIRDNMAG

[17] = Efflux ratio of permeability in human Caco2 cells by LC-MS/MS analysis; format: ADME, cell-based; settings: Caco-2
[18] = Unbound hepatic clearance in rat hepatocytes assessed per million cells; format: ADME, cell-based, Hepatocyte
[19] = Unbound hepatic clearance in human hepatocytes assessed per million cells; format: ADME, cell-based, Hepatocyte
[20] = target: cAMP-dependent protein kinase catalytic subunit alpha (Homo sapiens, UniProt P17612); test: Inhibition of protein kinase A (unknown origin) using Kemptide (LRRASLG) as substrate incubated for 15 mins in presence of ATP by spectrophotometric analysis
[21] = target: T1, Tyrosine-protein kinase JAK3 (Homo sapiens, UniProt P52333); test: Inhibition of JAK3 (unknown origin)
T1 sequence (P52333 whole entry): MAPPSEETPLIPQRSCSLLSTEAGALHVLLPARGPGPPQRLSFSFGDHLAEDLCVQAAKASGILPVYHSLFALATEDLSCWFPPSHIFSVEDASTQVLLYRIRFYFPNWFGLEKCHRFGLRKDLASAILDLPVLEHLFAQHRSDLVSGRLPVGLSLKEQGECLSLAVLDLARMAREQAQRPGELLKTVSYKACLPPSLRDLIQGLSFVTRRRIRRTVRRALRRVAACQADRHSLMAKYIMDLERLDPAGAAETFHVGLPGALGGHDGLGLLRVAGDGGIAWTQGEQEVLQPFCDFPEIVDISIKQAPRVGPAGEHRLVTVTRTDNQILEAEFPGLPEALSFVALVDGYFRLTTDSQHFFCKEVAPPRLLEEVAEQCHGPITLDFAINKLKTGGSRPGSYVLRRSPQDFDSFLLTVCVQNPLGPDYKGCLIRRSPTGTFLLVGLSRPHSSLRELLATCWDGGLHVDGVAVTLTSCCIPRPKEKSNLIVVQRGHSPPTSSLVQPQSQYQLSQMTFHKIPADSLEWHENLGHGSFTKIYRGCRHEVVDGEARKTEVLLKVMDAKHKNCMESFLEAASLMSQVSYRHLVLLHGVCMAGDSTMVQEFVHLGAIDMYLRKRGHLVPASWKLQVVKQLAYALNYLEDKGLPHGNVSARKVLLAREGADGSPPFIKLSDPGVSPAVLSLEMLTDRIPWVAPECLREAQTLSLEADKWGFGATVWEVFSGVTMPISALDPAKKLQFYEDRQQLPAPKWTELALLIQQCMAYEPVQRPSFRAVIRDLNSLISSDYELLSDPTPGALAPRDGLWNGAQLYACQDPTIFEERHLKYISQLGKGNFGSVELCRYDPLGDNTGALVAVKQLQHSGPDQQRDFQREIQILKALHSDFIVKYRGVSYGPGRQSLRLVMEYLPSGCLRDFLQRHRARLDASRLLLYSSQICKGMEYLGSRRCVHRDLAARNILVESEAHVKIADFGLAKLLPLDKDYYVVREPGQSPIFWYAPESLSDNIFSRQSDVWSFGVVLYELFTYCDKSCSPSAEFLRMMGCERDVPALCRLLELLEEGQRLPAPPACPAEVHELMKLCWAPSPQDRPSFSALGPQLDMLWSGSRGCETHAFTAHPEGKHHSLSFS

[22] = target: Glycogen synthase kinase-3 beta (Homo sapiens, UniProt P49841); test: Inhibition of GSK-3beta (unknown origin) using HSSPHQS(PO3H2)EDEEE peptide as substrate measured after 15 mins in presence of ATP by spectrophotometric analysis
[23] = target: T2, Receptor-type tyrosine-protein kinase FLT3 (Homo sapiens, UniProt P36888); test: Inhibition of FLT3 (unknown origin) using polyE4Y peptide as substrate incubated for 60 mins in presence of [33P] gammaATP by microbeta liquid scintillation counter
T2 sequence (P36888 whole entry): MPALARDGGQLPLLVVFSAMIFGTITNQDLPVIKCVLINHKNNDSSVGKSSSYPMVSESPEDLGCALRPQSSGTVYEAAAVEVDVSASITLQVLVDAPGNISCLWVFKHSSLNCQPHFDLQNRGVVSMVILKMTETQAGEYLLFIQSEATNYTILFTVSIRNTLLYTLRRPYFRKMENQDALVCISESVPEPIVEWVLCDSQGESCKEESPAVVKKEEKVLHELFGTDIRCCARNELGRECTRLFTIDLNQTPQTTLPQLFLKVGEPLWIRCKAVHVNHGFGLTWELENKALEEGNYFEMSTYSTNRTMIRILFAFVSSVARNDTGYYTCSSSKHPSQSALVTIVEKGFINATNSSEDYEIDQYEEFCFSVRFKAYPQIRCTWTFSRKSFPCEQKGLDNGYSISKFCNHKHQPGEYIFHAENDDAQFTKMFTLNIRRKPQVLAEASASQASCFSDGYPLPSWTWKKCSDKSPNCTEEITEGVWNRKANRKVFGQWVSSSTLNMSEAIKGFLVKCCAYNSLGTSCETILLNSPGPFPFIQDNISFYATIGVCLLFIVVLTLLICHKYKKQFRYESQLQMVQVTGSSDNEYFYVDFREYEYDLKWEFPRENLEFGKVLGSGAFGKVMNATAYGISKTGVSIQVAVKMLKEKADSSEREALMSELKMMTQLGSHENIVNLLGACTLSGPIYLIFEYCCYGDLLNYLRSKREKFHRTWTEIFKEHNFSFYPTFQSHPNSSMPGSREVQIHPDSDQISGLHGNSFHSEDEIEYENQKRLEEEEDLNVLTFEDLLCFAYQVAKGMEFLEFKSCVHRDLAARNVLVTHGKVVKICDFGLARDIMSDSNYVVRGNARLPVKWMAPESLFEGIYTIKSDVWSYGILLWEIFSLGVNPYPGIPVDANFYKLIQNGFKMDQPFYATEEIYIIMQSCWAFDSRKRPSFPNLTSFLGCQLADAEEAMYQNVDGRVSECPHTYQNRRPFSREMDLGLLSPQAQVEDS

Ki [1] [µM]	Ratio Ki (Homo sapiens [2])	Ratio Ki (Homo sapiens [3])	Ki [8] [µM]	Structure (SMILES)	IC50 (PBMC) [µM]	further results
0.0002	149	36	–	C#CCC(C)(CN)c1cccc(-c2ccnc3[nH]ncc23)c1 (configuration not stated)	0.02	–
0.014	–	39	–	CCc1cc(-c2ccnc3[nH]ncc23)cc(C(C)(CC)CN)c1 (configuration not stated)	0.25	–
0.0004	–	25	–	CCC(C)(CN)c1cccc(-c2ccnc3[nH]nc(C(F)(F)F)c23)c1 (configuration not stated)	0.01	clearance [11]: 45 mL/min/kg; half-life [12]: 1.8 h; Vd [13]: 2.7 L/kg
0.028	–	–	0.584	CC(C)(C#N)c1cccc(-c2ccnc3[nH]ncc23)c1	–	clearance [11]: 12 mL/min/kg; Ki [14]: 0.56 µM; Papp A→B at 2 h [15]: 36 ×10⁻⁶ cm/s; half-life [12]: 4.6 h; Ki [16]: 0.27 µM; efflux ratio [17]: 0.7; CL free [18]: 58 µL/min; Vd [13]: 0.94 L/kg; CL free [19]: 172 µL/min
0.022	28	18	–	NCC1(c2cccc(-c3ccnc4[nH]ncc34)c2)CCCC1	0.35	–
0.012	50	16	–	CC(C)(CN)c1cccc(-c2ccnc3[nH]ncc23)c1	0.33	–
0.0003	–	22	–	CCC(C)(CN)c1cccc(-c2ccnc3[nH]nc(Cl)c23)c1 (configuration not stated)	0.02	–
0.005	–	24	–	CCC(C)(CN)c1cc(C)cc(-c2ccnc3[nH]ncc23)c1 (configuration not stated)	0.26	–
0.003	37	13 to 24	–	CCC(C)(CN)c1cccc(-c2ccnc3[nH]ncc23)c1 (configuration not stated)	0.17	–
0.072	–	–	–	CCC(C)(C#N)c1cccc(-c2ccnc3[nH]ncc23)c1 (configuration not stated)	2.7	–
0.03	18	8	–	NCC1(c2cccc(-c3ccnc4[nH]ncc34)c2)CCCCC1	0.58	–
< 0.001	–	> 16	–	CCC(C)(CN)c1cccc(-c2ccnc3[nH]nc(C)c23)c1 (configuration not stated)	0.1	–
0.003	–	–	0.012	CC(C)(C#N)c1cccc(-c2ccnc3[nH]ccc23)n1	–	Ki [20]: 0.11 µM; clearance [11]: 42 mL/min/kg; Ki [6]: 0.11 µM; Ki [14]: 0.006 µM; half-life [12]: 0.3 h; Ki [16]: 0.013 µM; Ki [21]: 0.003 µM; CL free [18]: 156 µL/min; Ki [22]: 0.21 µM; logD [10]: 3.4; Vd [13]: 0.99 L/kg; CL free [19]: 24 µL/min; Ki [23]: 0.1 µM
0.009	–	–	0.184	NCC1(c2cccc(-c3ccnc4[nH]nc(C(F)(F)F)c34)c2)CCOCC1	0.13	remaining at 0.5 h [4]: 96%; Ki [20]: 0.03 µM; Ki [6]: 0.468 µM; IC50 [7]: > 10 µM; remaining at 0.5 h [9]: 65%; IC50 (HFL1): 3.3 µM; Ki [23]: 0.046 µM
0.009	93	111	–	NCC1(c2cccc(-c3ccnc4[nH]ncc34)c2)CCOCC1	0.55	–
0.032	–	39	–	CCCc1cc(-c2ccnc3[nH]ncc23)cc(C(C)(CC)CN)c1 (configuration not stated)	0.2	–
0.014	–	–	0.24	CC(C)(C#N)c1cccc(-c2ccnc3[nH]ncc23)n1	–	clearance [11]: 22 mL/min/kg; Ki [6]: 0.465 µM; Ki [14]: 0.21 µM; Papp A→B at 2 h [15]: 20.1 ×10⁻⁶ cm/s; half-life [12]: 2.5 h; Ki [16]: 0.086 µM; efflux ratio [17]: 0.95; CL free [18]: 24 µL/min; logD [10]: 2.9; Vd [13]: 1.22 L/kg; CL free [19]: 33 µL/min

Structure (SMILES)	Ki [1] [µM]	Ratio Ki (Homo sapiens [2])	Ratio Ki (Homo sapiens [3])	Ki [8] [µM]	IC50 (PBMC) [µM]	further results
Cc1cc(-c2ccnc3[nH]nc(C(F)(F)F)c23)cc(C2(CN)CCC2)c1	0.003	–	–	0.135	0.06	inhibition (INH) (Cytochrome P450 2C9): Active; inhibition (INH) (Cytochrome P450 3A4): Active; remaining at 0.5 h [4]: 81%; pKa [5]: 8.8; Ki [6]: 0.06 µM; IC50 [7]: 0.7 µM; inhibition (INH) (Cytochrome P450 2D6): Active; remaining at 0.5 h [9]: 56%; logD [10]: 2.9; IC50 (HFL1): 0.65 µM
NCC1(c2cccc(-c3ccnc4[nH]nc(C(F)(F)F)c34)c2)CCC1	0.002	–	–	0.06	0.09	remaining at 0.5 h [4]: 81%; pKa [5]: 8.8; Ki [6]: 0.057 µM; IC50 [7]: 3 µM; remaining at 0.5 h [9]: 88%; IC50 (HFL1): 1.9 µM
NCC1(c2cccc(-c3ccnc4[nH]ncc34)c2)CCC1	0.017	41	18	–	0.3	–
